Publication PMC3707936 (Molecular cancer therapeutics, 2013)
Where two headings read alike, the source gives them in different places. *1 amine or outer side, *2 acyl side, *3 side chain or, on linkers, in order; H or OH if unused. Where a SMILES comes first, the peptide text is derived from it. Bridges are numbered along the chain shown (N, C = ends). Roman numbers before positions name the chains, in order. [ ]: non-standard residue; d: D form. Actinocin(9to1) = Cc1c2oc3c(C)ccc(C(=O)[*:1])c3nc-2c(C(=O)[*:2])c(N)c1=O; NMeV = CN[C@H](C(=O)O)C(C)C; Sar = CNCC(=O)O

What was measured:
Type in all cases: cell-based
[1] = test system: ULTR cells; assay: Quantitative drug screen, CellTiter-Blue cell viability, ULTR; conditions: read-out: IC50 ULTR
[2] = test system: GIST 882 cells; assay: Quantitative drug screen, CellTiter-Blue cell viability, GIST 882; conditions: Homo sapiens, GIST882, 72 h, read-out: IC50 GIST 882
[3] = test system: GIST T1-10R cells; assay: Quantitative drug screen, CellTiter-Blue cell viability, GIST T1-10R; conditions: 72 h, read-out: IC50 GIST TI-10R
[4] = test system: GIST 882 cells; assay: Hit validation cell proliferation, 12-point dose-response, GIST 882; conditions: Homo sapiens, GIST882, 72 h, read-out: IC50 GIST 882
[5] = test system: GIST T1-10R cells; assay: Hit validation cell proliferation, 12-point dose-response, GIST T1-10R; conditions: 72 h, read-out: IC50 GIST T1-10R
[6] = test system: Hs 919.T. cells; assay: Hit validation cell proliferation, 12-point dose-response, Hs 919.T.; conditions: read-out: IC50 Hs 919.T.
[7] = test system: Hs 919.T. cells; assay: Drug screen assay in Hs 919.T. cell line at 1 μM; conditions: 72 h; for inhibition at 1 µM: read-out: inhibition against Hs 919.T. cell proliferation
[8] = test system: GIST-T1 cells; assay: Quantitative drug screen, CellTiter-Blue cell viability, GIST-T1; conditions: read-out: IC50 GIST-T1

Molecule: CCCSc1ccc2nc(NC(=O)OC)[nH]c2c1 [Albendazole]
- IC50 ([1]; 72 h): 0.32 µM
- IC50 [2]: > 1 µM
- IC50 [3]: > 1 µM

Molecule: COc1cc(NS(C)(=O)=O)ccc1Nc1c2ccccc2nc2ccccc12 [Amsacrine]
- IC50 ([1]; 72 h): > 1 µM
- IC50 [2]: > 1 µM
- IC50 [3]: > 1 µM

Molecule: CC(C)C[C@H](NC(=O)[C@H](Cc1ccccc1)NC(=O)c1cnccn1)B(O)O [Bortezomib]
- IC50 [4]: 0.002 ± 0.0003 µM
- IC50 ([1]; 72 h): < 0.07 µM
- IC50 [5]: 0.001 ± 0.001 µM
- IC50 [6]: 0.15 ± 0.01 µM
- inhibition at 1 µM [7]: > 50%
- IC50 [2]: < 0.07 µM
- IC50 [3]: 0.5 µM

Molecule: CCOC(=O)n1ccn(C)c1=S [Carbimazole]
- IC50 ([1]; 72 h): < 0.07 µM
- IC50 [2]: 0.05 µM
- IC50 [3]: 0.18 µM

Molecule: CCN(CC)CCCC(C)Nc1ccnc2cc(Cl)ccc12 (centres unmarked) [Chloroquine]
- IC50 ([1]; 72 h): > 1 µM
- IC50 [2]: 0.46 µM
- IC50 [3]: > 1 µM

Molecule: Nc1nc(Cl)nc2c1ncn2[C@H]1C[C@H](O)[C@@H](CO)O1 [Cladribine]
- IC50 ([1]; 72 h): 0.54 µM
- IC50 [2]: 0.76 µM
- IC50 [3]: > 1 µM

Molecule: Nc1nc(Cl)nc2c1ncn2[C@@H]1O[C@H](CO)[C@@H](O)[C@@H]1F [Clofarabine]
- IC50 ([1]; 72 h): 0.18 µM
- IC50 [2]: 0.99 µM
- IC50 [3]: > 1 µM

Molecule: Cc1c2oc3c(C)ccc(C(=O)N[C@@H]4C(=O)N[C@H](C(C)C)C(=O)N5CCC[C@H]5C(=O)N(C)CC(=O)N(C)[C@@H](C(C)C)C(=O)O[C@@H]4C)c3nc-2c(C(=O)N[C@@H]2C(=O)N[C@H](C(C)C)C(=O)N3CCC[C@H]3C(=O)N(C)CC(=O)N(C)[C@@H](C(C)C)C(=O)O[C@@H]2C)c(N)c1=O [Dactinomycin] (I: T[dV]P[Sar][NMeV] / II: T[dV]P[Sar][NMeV]; ester I:1-I:C, II:1-II:C; linker I:N-II:N via Actinocin(9to1))
- IC50 ([1]; 72 h): < 0.07 µM
- inhibition at 1 µM [7]: > 50%
- IC50 [2]: < 0.07 µM
- IC50 [3]: > 1 µM

Molecule: C#C[C@]1(O)CC[C@H]2[C@@H]3CCC4=Cc5oncc5C[C@]4(C)[C@H]3CC[C@@]21C [Danazol]
- IC50 ([1]; 72 h): > 1 µM
- IC50 [2]: 0.67 µM
- IC50 [3]: > 1 µM

Molecule: COc1cccc2c1C(=O)c1c(O)c3c(c(O)c1C2=O)C[C@@](O)(C(C)=O)C[C@@H]3O[C@H]1C[C@H](N)[C@H](O)[C@H](C)O1 [Daunorubicin]
- IC50 ([1]; 72 h): < 0.07 µM
- inhibition at 1 µM [7]: > 50%
- IC50 [2]: 0.17 µM
- IC50 [3]: > 1 µM

Molecule: C[C@H]1O[C@@H](O[C@H]2[C@@H](O)C[C@H](O[C@H]3[C@@H](O)C[C@H](O[C@H]4CC[C@@]5(C)[C@H](CC[C@@H]6[C@@H]5CC[C@]5(C)[C@@H](C7=CC(=O)OC7)CC[C@]65O)C4)O[C@@H]3C)O[C@@H]2C)C[C@H](O)[C@@H]1O [Digitoxin]
- IC50 ([1]; 72 h): < 0.07 µM
- IC50 [2]: 0.16 µM
- IC50 [3]: > 1 µM

Molecule: C[C@H]1O[C@@H](O[C@H]2[C@@H](O)C[C@H](O[C@H]3[C@@H](O)C[C@H](O[C@H]4CC[C@@]5(C)[C@H](CC[C@@H]6[C@@H]5C[C@@H](O)[C@]5(C)[C@@H](C7=CC(=O)OC7)CC[C@]65O)C4)O[C@@H]3C)O[C@@H]2C)C[C@H](O)[C@@H]1O [Digoxin]
- IC50 ([1]; 72 h): 0.16 µM
- inhibition at 1 µM [7]: > 50%
- IC50 [2]: 0.79 µM
- IC50 [3]: 0.93 µM

Molecule: COc1cccc2c1C(=O)c1c(O)c3c(c(O)c1C2=O)C[C@@](O)(C(=O)CO)C[C@@H]3O[C@H]1C[C@H](N)[C@H](O)[C@H](C)O1 [Doxorubicin]
- IC50 ([1]; 72 h): 0.16 µM
- inhibition at 1 µM [7]: > 50%
- IC50 [2]: 0.08 µM
- IC50 [3]: > 1 µM

Molecule: COc1cc([C@@H]2c3cc4c(cc3[C@@H](O[C@@H]3O[C@@H]5CO[C@@H](C)O[C@H]5[C@H](O)[C@H]3O)[C@H]3COC(=O)[C@H]23)OCO4)cc(OC)c1O [Etoposide]
- IC50 ([1]; 72 h): > 1 µM
- IC50 [2]: 0.03 µM
- IC50 [3]: > 1 µM

Molecule: Nc1nc(F)nc2c1ncn2[C@@H]1O[C@H](COP(=O)(O)O)[C@@H](O)[C@@H]1O [Fludarabine Phosphate]
- IC50 [4]: 0.54 ± 0.03 µM
- IC50 ([1]; 72 h): > 1 µM
- IC50 [5]: 0.84 ± 0.2 µM
- IC50 [2]: > 1 µM
- IC50 [3]: 0.81 µM

Molecule: CN(C)c1ccc(C(=C2C=CC(=[N+](C)C)C=C2)c2ccc(N(C)C)cc2)cc1 [Gentian Violet]
- IC50 ([1]; 72 h): 0.16 µM
- IC50 [2]: 0.25 µM
- IC50 [3]: 0.96 µM

Molecule: CC(=O)[C@]1(O)Cc2c(O)c3c(c(O)c2[C@@H](O[C@H]2C[C@H](N)[C@H](O)[C@H](C)O2)C1)C(=O)c1ccccc1C3=O [Idarubicin]
- IC50 [4]: 0.13 ± 0.04 µM
- IC50 ([1]; 72 h): < 0.07 µM
- IC50 [5]: 0.05 ± 0.01 µM
- IC50 [6]: 0.07 ± 0.003 µM
- inhibition at 1 µM [7]: > 50%
- IC50 [2]: 0.05 µM
- IC50 [3]: 0.69 µM

Molecule: COC(=O)Nc1nc2ccc(C(=O)c3ccccc3)cc2[nH]1 [Mebendazole]
- IC50 ([1]; 72 h): 0.73 µM
- IC50 [2]: > 1 µM
- IC50 [3]: > 1 µM

Molecule: O=C1c2c(O)ccc(O)c2C(=O)c2c(NCCNCCO)ccc(NCCNCCO)c21 [Mitoxantrone]
- IC50 ([1]; 72 h): < 0.07 µM
- inhibition at 1 µM [7]: > 50%
- IC50 [2]: 0.08 µM
- IC50 [3]: > 1 µM

Molecule: Cc1cn(-c2cc(NC(=O)c3ccc(C)c(Nc4nccc(-c5cccnc5)n4)c3)cc(C(F)(F)F)c2)cn1 [Nilotimb]
- IC50 ([8]; primary screen, 72 h, 10 μM to […] twofold dilutions, * = IC50 < 0.07 μM and drug showed no dose response): 0.38 µM

Molecule: C[C@@H]1O[C@@H](O[C@H]2C[C@@H](O)[C@]3(CO)[C@H]4[C@H](O)C[C@]5(C)[C@@H](C6=CC(=O)OC6)CC[C@]5(O)[C@@H]4CC[C@]3(O)C2)[C@H](O)[C@H](O)[C@H]1O [Ouabain]
- IC50 ([1]; 72 h): < 0.07 µM
- IC50 [2]: 0.03 µM
- IC50 [3]: 0.24 µM

Molecule: CC(=O)O[C@H]1C(=O)[C@@]2(C)[C@H]([C@H](OC(=O)c3ccccc3)[C@]3(O)C[C@H](OC(=O)[C@H](O)[C@@H](NC(=O)c4ccccc4)c4ccccc4)C(C)=C1C3(C)C)[C@]1(OC(C)=O)CO[C@@H]1C[C@@H]2O [Paclitaxel]
- IC50 ([1]; 72 h): 0.2 µM
- IC50 [2]: > 1 µM
- IC50 [3]: > 1 µM

Molecule: COc1cc([C@@H]2c3cc4c(cc3[C@@H](O[C@@H]3O[C@@H]5CO[C@@H](c6cccs6)O[C@H]5[C@H](O)[C@H]3O)[C@H]3COC(=O)[C@H]23)OCO4)cc(OC)c1O [Teniposide]
- IC50 ([1]; 72 h): 0.19 µM
- IC50 [2]: 0.09 µM
- IC50 [3]: > 1 µM

Molecule: CC[C@@]1(O)C(=O)OCc2c1cc1n(c2=O)Cc2cc3c(CN(C)C)c(O)ccc3nc2-1 [Topotecan]
- IC50 ([1]; 72 h): 0.09 µM
- IC50 [2]: 0.44 µM
- IC50 [3]: > 1 µM

Molecule: CCC1=C[C@@H]2CN(C1)Cc1c([nH]c3ccccc13)[C@@](C(=O)OC)(c1cc3c(cc1OC)N(C)[C@H]1[C@@](O)(C(=O)OC)[C@H](OC(C)=O)[C@]4(CC)C=CCN5CC[C@]31[C@@H]54)C2 [Vinorelbine]
- IC50 ([1]; 72 h): 0.08 µM
- inhibition at 1 µM [7]: > 50%
- IC50 [2]: > 1 µM
- IC50 [3]: > 1 µM

Molecule: Plicamycin
- IC50 [8]: 0.35 µM
- IC50 [1]: 0.15 µM
- inhibition against Hs 919.T. cell proliferation ([7]; 1 μM drug): greater than 50%
